Laboratory results as given in article PMC9259769, “Biochemical characterization and peptide mass fingerprinting of two glutathione transferases from Biomphalaria alexandrina snails (Gastropoda: Planorbidae)” (Journal of Genetic Engineering & Biotechnology, 2022).
Read-outs that look alike come from different tables or passages of the source. Each block holds one molecule with its values, some of them ahead of it.

Experiments:
BaGST2 [1] = test: Inhibition of GSH-CDNB-conjugating activity and type of inhibition; type: biochemical, Biomphalaria alexandrina; conditions: for Type of inhibition / Vmax in the presence of inhibitor: CDNB as substrate; for Type of inhibition: inhibitor at less than I20; for Vmax in the presence of inhibitor: inhibitor at less than I20, without inhibitor 75.5; for IC50: GSH-CDNB-conjugating activity, standard assay conditions
Procedure: (§1) One unit of transferase activity is defined as the amount of enzyme which catalyzes the formation of 1 μmol of thioether per min, and the specific activity is expressed as μmol/min/mg protein.
(§2) The IC50 values were determined according to Yalcin [18]. The IC50 values were determined by plotting percentage activity values versus log inhibitor concentrations.
(§3) The type of inhibition of BSP, hematin, and CB was also examined by studying the effect of constant concentration (less than IC20) of each inhibitor on the Km (CDNB) and Vmax of BaGST2 and BaGST3.

BaGST3 [2] = test: as above; type: biochemical, Biomphalaria alexandrina; conditions: for IC50: GSH-CDNB-conjugating activity, standard assay conditions; for Type of inhibition / Vmax in the presence of inhibitor: CDNB as substrate; for Type of inhibition: inhibitor at less than I20; for Vmax in the presence of inhibitor: inhibitor at less than I20, without inhibitor 48.8
Procedure: as §1, §2, §3

BaGST2 [3] = test: Substrate specificity (glutathione transferase and peroxidase assays); type: biochemical, Biomphalaria alexandrina
Excerpt: as §1
(§4) Enzyme activity with various aromatic substrates, namely, bromosulfophthalein (BSP), 1, 2-dichloro-4-nitrobenzene (DCNB), p-nitrophenethyl-bromide, and ethacrynic acid (EA), was examined as described.
(§5) Substrate specificities of BaGST2 and BaGST3 toward several compounds were studied.

BaGST3 [4] = test: as above; type: biochemical, Biomphalaria alexandrina
Excerpt: as §1, §4, §5

BaGST2 [5] = test: Kinetic studies with varied GSH and CDNB concentrations; type: biochemical, Biomphalaria alexandrina; conditions: 25 °C, substrate varied (CDNB 0.01-1.5 mM, GSH 0.025-1.5 mM)
Excerpt: as §1

BaGST3 [6] = test: as above; type: biochemical, Biomphalaria alexandrina
Excerpt: as §1

[7] = molecular target: Biomphalaria alexandrina glutathione transferase BaGST3 (Biomphalaria alexandrina); test: SEC; Sephadex G-75 column (90 x 1.4 cm), 20 mM Tris-HCl pH 8.0, 100 mM NaCl, 4 °C; calibrated with standard proteins; apparent MW about 45 kDa compared with the subunit MW of 23.6 kDa by SDS-PAGE

Molecule: O=C1OC(c2ccc(O)c(S(=O)(=O)O)c2)(c2ccc(O)c(S(=O)(=O)O)c2)c2c(Br)c(Br)c(Br)c(Br)c21 [BSP, bromosulfophthalein]
- Type of inhibition (BaGST2 [1]): Competitive
- Vmax in the presence of inhibitor (BaGST2 [1]): 75.5 μmol/min/mg protein
- IC50 (BaGST2 [1]): 80.4 µM
- IC50 (BaGST3 [2]): 95 µM
- Activity toward substrate (in words) (BaGST2 [3]; BaGST2): did not show any detectable activity
- Activity toward substrate (in words) (BaGST3 [4]; BaGST3): did not show any detectable activity

- IC50 (BaGST2 [1]): 2.35 µM
- IC50 (BaGST3 [2]): 0.58 µM
Molecule: Nc1c(S(=O)(=O)O)cc(Nc2ccc(Nc3nc(Cl)nc(Nc4ccccc4S(=O)(=O)O)n3)c(S(=O)(=O)O)c2)c2c1C(=O)c1ccccc1C2=O [CB, Cibacron Blue]
- Type of inhibition (BaGST2 [1]): Competitive
- Vmax in the presence of inhibitor (BaGST2 [1]): 75.5 μmol/min/mg protein
- Type of inhibition (BaGST3 [2]): Competitive
- Vmax in the presence of inhibitor (BaGST3 [2]): 48.8 μmol/min/mg protein

Molecule: O=[N+]([O-])c1ccc(Cl)c([N+](=O)[O-])c1 [CDNB, 1-chloro-2,4-dinitrobenzene]
- Specific activity toward CDNB (BaGST2 [3]; BaGST2 after GSH-Sepharose, 146-fold purification): 19.0 μmol/min/mg protein
- Specific activity toward CDNB (BaGST3 [4]; BaGST3 after GSH-Sepharose, 346-fold purification): 45.2 μmol/min/mg protein
- Km (BaGST2 [5]): 3.33 mM
- Km (BaGST3 [6]; 25 °C, CDNB varied 0.01-1.5 mM, read-out: Km): 50 µM

Molecule: CC(C)(OO)c1ccccc1 [CuOOH, cumene hydroperoxide]
- Activity toward substrate (in words) (BaGST2 [3]; BaGST2): peroxidase activity
- Substrate specificity (specific activity) (BaGST2 [3]; BaGST2, means ± SD, n ≥ 4): 0.60 ± 0.02 µmol/min/mg
- Activity toward substrate (in words) (BaGST3 [4]; BaGST3): peroxidase activity
- Substrate specificity (specific activity) (BaGST3 [4]; BaGST3, means ± SD, n ≥ 4): 1.40 ± 0.03 µmol/min/mg

Molecule: O=[N+]([O-])c1ccc(Cl)c(Cl)c1 [DCNB, 1,2-dichloro-4-nitrobenzene]
- Activity toward substrate (in words) (BaGST2 [3]; BaGST2): low activity
- Substrate specificity (specific activity), DCNB × 10^3 (BaGST2 [3]; BaGST2, means ± SD, n ≥ 4): 30 ± 1.5 μmol/min/mg × 10^3
- Activity toward substrate (in words) (BaGST3 [4]; BaGST3): low activity
- Substrate specificity (specific activity), DCNB × 10^3 (BaGST3 [4]; BaGST3, means ± SD, n ≥ 4): 10 ± 0.6 μmol/min/mg × 10^3

- Activity toward substrate (in words) (BaGST2 [3]; BaGST2): high activity
- Substrate specificity (specific activity) (BaGST2 [3]; BaGST2, means ± SD, n ≥ 4): 3.80 ± 0.11 µmol/min/mg
- Activity toward substrate (in words) (BaGST3 [4]; BaGST3): high activity
- Substrate specificity (specific activity) (BaGST3 [4]; BaGST3, means ± SD, n ≥ 4): 2.60 ± 0.10 µmol/min/mg
Molecule: C=C(CC)C(=O)c1ccc(OCC(=O)O)c(Cl)c1Cl [EA, ethacrynic acid]

- Km (BaGST2 [5]): 0.22 mM
- Km (BaGST3 [6]; read-out: Km (GSH), high GSH concentrations, non-Michaelian, GSH 0.5-5 mM): 610 µM
- Km (BaGST3 [6]; read-out: Km (GSH), low GSH concentrations, non-Michaelian, GSH 0.025-0.5 mM): 150 µM
Molecule: N[C@@H](CCC(=O)N[C@@H](CS)C(=O)NCC(=O)O)C(=O)O [GSH, γ-L-glutamyl-L-cysteinyl-glycine]

Molecule: C=CC1=C(C)c2cc3[n-]c(cc4[n-]c(cc5nc(cc1n2)C(C)=C5C=C)c(C)c4CCC(=O)O)c(CCC(=O)O)c3C.O.[Fe+2] [Hematin, hematin]
- Type of inhibition (BaGST2 [1]): Mixed
- Vmax in the presence of inhibitor (BaGST2 [1]): 13.7 μmol/min/mg protein
- IC50 (BaGST2 [1]): 1.35 µM
- Type of inhibition (BaGST3 [2]): Noncompetitive
- Vmax in the presence of inhibitor (BaGST3 [2]): 15.8 μmol/min/mg protein
- IC50 (BaGST3 [2]): 0.46 µM

Molecule: N[C@@H](CCC(=O)N[C@@H](CSCc1ccc(Br)cc1)C(=O)NCC(=O)O)C(=O)O [S-P-bromobenzyl-GSH]
- IC50 (BaGST2 [1]): 9.3 µM
- IC50 (BaGST3 [2]): 34.9 µM

Molecule: CCCCSCC(NC(=O)CCC(N)C(=O)O)C(=O)NCC(=O)O (stereo not drawn) [S-butyl-GSH]
- IC50 (BaGST2 [1]): 69.1 µM
- IC50 (BaGST3 [2]): 51.2 µM

- IC50 (BaGST2 [1]): 36.3 µM
- IC50 (BaGST3 [2]): 19.5 µM
Molecule: CCCCCCSC[C@H](NC(=O)CC[C@H](N)C(=O)O)C(=O)NCC(=O)O [S–hexyl-GSH, S-hexyl-GSH]

Molecule: O=[N+]([O-])c1ccc(CCBr)cc1 [p-Nitro-phenethylbromide, p-nitrophenethyl-bromide]
- Activity toward substrate (in words) (BaGST2 [3]; BaGST2): low activity
- Substrate specificity (specific activity) (BaGST2 [3]; BaGST2, means ± SD, n ≥ 4): 2.70 ± 0.13 µmol/min/mg
- Activity toward substrate (in words) (BaGST3 [4]; BaGST3): low activity
- Substrate specificity (specific activity) (BaGST3 [4]; BaGST3, means ± SD, n ≥ 4): 6.00 ± 0.20 µmol/min/mg

- stoichiometry N [7]: 2
Molecule: Biomphalaria alexandrina glutathione transferase BaGST3 (enzyme)
